Measurements from patent publication US20100119489A1, “Stimulation of Pancreatic Beta Cell Proliferation” (priority 2005, published 2010).

Assays:
TMEM27 [1] = assay: Shedding of TMEM27 from MIN6 cells (immunoblot of supernatant, N-terminus; anti-V5 C-terminus as control); type: cell-based; settings: 2 hrs in OPTI-MEM
Experimental: The pancreatic beta-cell line MIN6 was cultured with DMEM medium containing 25 mM glucose, 15% fetal bovine serum, and 5.5 μM 2-mercaptoethanol. MIN6 cells were plated at 50% confluency in 12 well plates and incubated for 24 hrs. Cells were washed with OPTI-MEM (Invitrogen) and incubated with either DMSO or protease inhibitor BB94 (1 μM) for 15 minutes in OPTI-MEM at 37° C. After the above incubation, cells were incubated with DMSO, PMA (Sigma P8139), BB94, or PMA+BB94 for 2 hrs in OPTI-MEM. 30 μl of each supernatant was collected for SDS-PAGE. Immunoblots were performed using anti-TMEM27 antibodies recognizing the N-terminus (cleaved portion) of TMEM27 (FIG. 8). […] Since BB94 is a known inhibitor of serine proteases and metalloproteases, this may indicate that TMEM27 is a substrate of a protease belonging to serine protease or metalloprotease family.

TMEM27 [2] = assay: Inhibition of N-glycosylation of TMEM27 in MIN6 cells (SDS-PAGE, immunoblot); type: cell-based; settings: increasing concentrations of tunicamycin, 12 hours at 37° C.
Experimental: (§1) (A) MIN6 cells were incubated with increasing amounts of tunicamycin, which inhibits glycosylation at asparagine residues. Addition of DMSO alone to the cells had no effect. (B) Supernatant from MIN6 cells was incubated with N-glycanase. […] Secreted protein was detected with anti-Col-3 antibody. (C) MIN6 cell lysates were incubated with either PBS or cross-linking reagents DTBP and BMH. […] Under reducing conditions, only the monomer was detected in PBS and DTBP-treated cell lysates. In contrast, the dimer persisted in BMH-treated samples as BMH cross-linking could not be reversed.
MIN6 cells that express pV5-TMEM27 were incubated with indicated concentrations of tunicamycin (Sigma) dissolved in DMSO and with DMSO alone for 12 hours at 37° C. Cell lysates were then subjected to SDS-PAGE and immunoblotting with anti-V5 antibody.
TMEM27 contains two predicted N-glycosylation sites at amino acid residues 76 and 93. MIN6 cells were treated with tunicamycin, which inhibits N-glycosylation. Cells were incubated in the presence of increasing concentrations of tunicamycin, and protein extracts were prepared and analyzed by SDS-PAGE and immunoblotting.

[3] = molecular target: the molecule itself; assay: chemical cross-linking (DTBP, BMH) of MIN6 cell lysates, reducing and non-reducing SDS-PAGE, immunoblot
Experimental: as §1
Chemical cross-linking experiments testing whether TMEM27 protein exists as a multimer were conducted. MIN6 cell extracts were incubated in the presence of two different cross-linking reagents; BMH (bismaleimidohexane), a membrane-permeable, non-cleavable compound and DTBP (dimethyl 3,3′-dithiobispropionimidate), a membrane permeable, cleavable compound prior to SDS-PAGE analysis that was performed under reducing and non-reducing conditions. […] However, the protein dimers disappeared under reducing conditions in the presence of DTBP (FIG. 3b). The results were similar in MIN6 cells that endogenously express TMEM27 and in N2A cells that were transiently transfected with TMEM27 expression vector (data not shown).

CCCCCCCCCCCCCC(=O)O[C@@H]1[C@@H](C)[C@@]2(O)[C@@H](C=C(CO)C[C@]3(O)C(=O)C(C)=C[C@@H]23)[C@@H]2C(C)(C)[C@]12OC(C)=O [PMA, phorbol 12-myristate 13-acetate]
expression levels of TMEM27 (C-terminus, anti-V5 antibody control) (TMEM27 [1]): do not change the expression levels of TMEM27

tunicamycin
effect on TMEM27 bands (N-glycosylation) (TMEM27 [2]): Two bands with increased electrophoretic mobility appeared

B1: TMEM27 full-length protein (other, mouse, UniProt Q9ESG4 15-222, looked up)
chain: ELCHPDAENAFKVRLSIRAALGDKAYVWDTDQEYLFRAMVAFSMRKVPNREATEISHVLLCNITQRVSFWFVVTDPSNNYTLPAAEVQSAIRKNRNRINSAFFLDDHTLEFLKIPSTLAPPMEPSVPVWIIVFGVIFCIVTVAIALLVLSGIRQRRRNNKGPPGVEDAEDKCENIITIENGIPCDPLDMKGGHINDGFLTEDERLTPL
modifications: N-glycosylated (predicted N-glycosylation sites at amino acid residues 76 and 93)
notes: Detected in cell or islet lysates (Western blot) and in fixed, permeabilized MIN6 cells; It also differs from the immunizing peptides, so it is not used here; the transgenic construct uses murine cDNA; also called TMEM protein
binding result [3]: binds
